The values below come from ChEMBL document CHEMBL4411308, “Design, synthesis and biological evaluation of novel benzo- and tetrahydrobenzo-[h]quinoline derivatives as potential DNA-intercalating antitumor agents” (Eur J Med Chem, 2019).

For test [1], the system named is A549. Put plainly: Cytotoxicity against human A549 cells assessed as inhibition of cell proliferation after 48 hrs by MTT assay. In kind it is functional, cell-based. The following applies: A549, 48 h.
Another test has as its system MCF7. Put plainly: Cytotoxicity against human MCF7 cells assessed as inhibition of cell proliferation after 48 hrs by MTT assay. In kind it is functional, cell-based. The conditions noted are these: MCF7, 48 h. (In general: Tetrazolium dyes change colour on reduction, which living cells bring about.)
Test [2] is described as follows: Cytotoxicity against mouse C26 cells assessed as inhibition of cell proliferation after 48 hrs by MTT assay. In kind it is functional, cell-based. The conditions noted are these: C26, 48 h.
Another test relates to A2780. Put plainly: Cytotoxicity against human A2780 cells assessed as inhibition of cell proliferation after 48 hrs by MTT assay. In kind it is functional, cell-based. The conditions noted are these: A2780, 48 h.
Test [3] deals with A549. Put plainly: Induction of apoptosis in human A549 cells assessed as live cells at 1 uM after 24 hrs by Annexin V-FITC/propidium iodide staining based flow cytometry (reference value: 98.4%). In kind it is functional. A general note: In flow cytometry, cells or beads pass a laser one at a time.
Test [4] has as its system A549. The test can be described thus: Induction of apoptosis in human A549 cells assessed as necrotic cells at 1 uM after 24 hrs by Annexin V-FITC/propidium iodide staining based flow cytometry (reference value: 0.231%). In kind it is functional.
The test system of test [5] is A549. The test can be described thus: Induction of apoptosis in human A549 cells assessed as late apoptotic cells at 1 uM after 24 hrs by Annexin V-FITC/propidium iodide staining based flow cytometry (reference value: 0.462%). In kind it is functional.
Test [6] deals with A549. Put plainly: Induction of apoptosis in human A549 cells assessed as early apoptotic cells at 1 uM after 24 hrs by Annexin V-FITC/propidium iodide staining based flow cytometry (reference value: 0.886%). In kind it is functional.
Test [7] has as its system A549. The test can be described thus: Induction of apoptosis in human A549 cells assessed as early apoptotic cells at 5 uM after 24 hrs by Annexin V-FITC/propidium iodide staining based flow cytometry (reference value: 0.886%). In kind it is functional.
The test system of test [8] is A549. The test can be described thus: Induction of apoptosis in human A549 cells assessed as necrotic cells at 5 uM after 24 hrs by Annexin V-FITC/propidium iodide staining based flow cytometry (reference value: 0.231%). In kind it is functional.
In test [9] the test system is Calf thymus DNA. The test can be described thus: Binding affinity to calf thymus DNA by UV-vis absorption spectrophotometric method. In kind it is nucleic-acid assay. The conditions noted are these: Bos taurus.
The test system of test [10] is A549. Put plainly: Induction of apoptosis in human A549 cells assessed as live cells at 5 uM after 24 hrs by Annexin V-FITC/propidium iodide staining based flow cytometry (reference value: 98.4%). In kind it is functional.
The test system of test [11] is A549. Put plainly: Induction of apoptosis in human A549 cells assessed as necrotic cells at 10 uM after 24 hrs by Annexin V-FITC/propidium iodide staining based flow cytometry (reference value: 0.231%). In kind it is functional.
Test [12] deals with A549. The test can be described thus: Induction of apoptosis in human A549 cells assessed as late apoptotic cells at 10 uM after 24 hrs by Annexin V-FITC/propidium iodide staining based flow cytometry (reference value: 0.462%). In kind it is functional.
The subject of test [13] is A549. Put plainly: Induction of apoptosis in human A549 cells assessed as late apoptotic cells at 5 uM after 24 hrs by Annexin V-FITC/propidium iodide staining based flow cytometry (reference value: 0.462%). In kind it is functional.
Test [14] has as its system A549. Put plainly: Induction of apoptosis in human A549 cells assessed as live cells at 10 uM after 24 hrs by Annexin V-FITC/propidium iodide staining based flow cytometry (reference value: 98.4%). In kind it is functional.
For test [15], the system named is Calf thymus DNA. The test can be described thus: Binding affinity to calf thymus DNA by fluorescence spectroscopic method. In kind it is nucleic-acid assay. The conditions noted are these: Bos taurus.
Test [16] deals with A549. The test can be described thus: Induction of apoptosis in human A549 cells assessed as early apoptotic cells at 10 uM after 24 hrs by Annexin V-FITC/propidium iodide staining based flow cytometry (reference value: 0.886%). In kind it is functional.
Test [17] relates to A549. Put plainly: Induction of apoptosis in human A549 cells after 24 hrs by Annexin V-FITC/propidium iodide staining based flow cytometry. In kind it is functional, cell-based.

Consider `COc1ccc(-c2cc(C(=O)NCCN(C)C)c3ccc4c(c3n2)CCCC4)cc1`, for which the IC50 amounted to 4.96 µM with A549 [1], 6.3 µM in the test on MCF7, 7.19 µM in [2] and 1.65 µM with A2780.

Turning to `COc1ccc(-c2cc(C(=O)NCCN(C)C)c3ccc4c(c3n2)CCCC4)cc1OC`, the IC50 in the test on A549 [1] worked out at 15.4 µM; in the test on MCF7, 13.8 µM; in [2], 12.7 µM; with A2780, 11.5 µM.

With `COc1cccc2c1C(=O)c1c(O)c3c(c(O)c1C2=O)C[C@@](O)(C(=O)CO)C[C@@H]3O[C@H]1C[C@H](N)[C@H](O)[C@H](C)O1` [DOXORUBICIN], the Activity came to 31% with A549 [3], 55.8% in the test on A549 [4], 11.1% in the test with A549 [5] and 2.19% in the test on A549 [6]. The figures for the IC50 in the test with A549 [1], in the test on MCF7 and in the test on A2780 were 0.766 µM, 0.5 µM and 0.123 µM, respectively.

In the case of `Cc1ccc(-c2cc(C(=O)NCCN(C)C)c3ccc4c(c3n2)CCCC4)cc1`, the Activity is reported as 1.13% in the test on A549 [7]; 1.02% with A549 [8]; 97.8% in the test on A549 [10]; 0.01% with A549 [11]; 0.72% in the test with A549 [12]; 0.093% in the test with A549 [13]. Moreover, the Activity is 54.9% in the test on A549 [14], 44.4% in the test on A549 [16] and “Dose-dependent effect” in the test on A549 [17]. Further, the IC50 with A549 [1] is 3.89 µM; in the test on MCF7 it was 2.29 µM; in test [2], 2.33 µM; with A2780, 2.13 µM. Further, the results for the Kb in the test with Calf thymus DNA [9] and in the test with Calf thymus DNA [15] were 1.75 ×10⁴ No_unit and 6.4 ×10⁴ No_unit, respectively.

Turning to `COc1cc(-c2cc(C(=O)NCCN(C)C)c3ccc4c(c3n2)CCCC4)cc(OC)c1OC`, the IC50 turned out to be 14.5 µM in the test on A549 [1], 5.62 µM in the test on MCF7, 11.6 µM in [2] and 11 µM with A2780.

Take `CC(=O)Nc1ccc(-c2cc(C(=O)NCCN(C)C)c3ccc4ccccc4c3n2)cc1`: the IC50 turned out to be 7.98 µM in the test on A549 [1], 4.05 µM with MCF7, 7.71 µM in test [2] and 9.34 µM in the test on A2780.

On to `CN(C)CCNC(=O)c1cc(-c2ccccc2)nc2c1ccc1ccccc12`, for which the half-inhibitory concentration (IC50) with A549 [1] was 65.7 µM; in the test on MCF7, 33.3 µM; in test [2], 35.6 µM; in the test on A2780 it was 72.6 µM.

Take `CN(C)CCNC(=O)c1cc(-c2ccccn2)nc2c3c(ccc12)CCCC3`: the half-maximal inhibitory concentration (IC50) with A549 [1] turned out to be 60.1 µM; with MCF7 it was 16.6 µM; in test [2], 50 µM; in the test on A2780, 14.8 µM.

Regarding `CC(=O)Nc1ccc(-c2cc(C(=O)NCCN(C)C)c3ccc4c(c3n2)CCCC4)cc1`, the Activity in the test on A549 [7] turned out to be 27.5%; with A549 [8], 1.22%; in the test with A549 [10], 63.7%; in the test on A549 [11] it was 0.34%; in the test on A549 [12], 0.34%; in the test on A549 [13] it was 7.58%. The Activity with A549 [14] was 53%; in the test on A549 [16], 46.4%; in the test on A549 [17] it was “Dose-dependent effect”. Besides, the half-inhibitory concentration (IC50) came out at 1.9 µM in the test with A549 [1], 2.69 µM in the test with MCF7, 3.91 µM in test [2] and 1.86 µM with A2780. Also, the Kb with Calf thymus DNA [9] stood at 2 ×10⁴ No_unit.

In the case of `CN(C)CCNC(=O)c1cc(-c2ccc(F)cc2)nc2c3c(ccc12)CCCC3`, the half-inhibitory concentration (IC50) in the test on A549 [1] amounted to 13.6 µM; with MCF7, 12.9 µM; in [2], 18.4 µM; in the test on A2780, 6.16 µM.

Turning to `Cc1ccc(-c2cc(C(=O)NCCN(C)C)c3ccc4ccccc4c3n2)cc1`, the Activity is recorded as 5.48% with A549 [7]; 0.2% with A549 [8]; 94.1% with A549 [10]; 0.22% in the test with A549 [11]; 0.08% with A549 [12]; 0.18% in the test on A549 [13]. Moreover, the figures for the Activity in the test on A549 [14], in the test on A549 [16] and with A549 [17] were 75.1%, 24.6% and “Dose-dependent effect”, respectively. The half-inhibitory concentration (IC50) in the test on A549 [1] turned out to be 5.89 µM; with MCF7, 1.51 µM; in [2] it was 3.62 µM; in the test on A2780, 9.08 µM. The Kb in the test with Calf thymus DNA [9] amounted to 2.2 ×10⁴ No_unit; in the test with Calf thymus DNA [15], 8.1 ×10⁴ No_unit.

Turning to `CN(C)CCNC(=O)c1cc(-c2ccccn2)nc2c1ccc1ccccc12`, the IC50 with A549 [1] was 56.2 µM; in the test on MCF7, > 100 µM; in test [2], 39.3 µM; in the test on A2780, 61.2 µM.

As for `COc1ccc(-c2cc(C(=O)NCCN(C)C)c3ccc4ccccc4c3n2)cc1`, the IC50 was determined as 20.2 µM in the test on A549 [1], 37.4 µM in the test with MCF7, 2.41 µM in test [2] and 14.2 µM in the test with A2780. Besides, the Kb is 2 ×10⁴ No_unit in the test with Calf thymus DNA [9] and 7.4 ×10⁴ No_unit in the test on Calf thymus DNA [15].

`CN(C)CCNC(=O)c1cc(-c2ccc(F)cc2)nc2c1ccc1ccccc12`: the half-maximal inhibitory concentration (IC50) was determined as 18.4 µM in the test with A549 [1], 16.6 µM in the test with MCF7, 5.29 µM in test [2] and 14.3 µM in the test with A2780.

The term IC50 denotes the concentration needed to halve the response being measured.
